According to patent publication US20260116921A1, “PEPTIDE INHIBITORS OF INTERLEUKIN-23 RECEPTOR AND THEIR USE TO TREAT INFLAMMATORY DISEASES” (priority 2018, published 2026):
Bridge positions count the residues as written; N and C are the ends. Square brackets hold non-standard residues; d marks the D form. Peptide text beside a SMILES is read from it. Trp(7-Me) = Cc1cccc2c(C[C@H](N)C(=O)O)c[nH]c12; 2Nal = N[C@@H](Cc1ccc2ccccc2c1)C(=O)O; AEF = NCCOc1ccc(C[C@H](N)C(=O)O)cc1; Cit = NC(=O)NCCC[C@H](N)C(=O)O; αMeL = CC(C)C[C@](C)(N)C(=O)O; Pen = CC(C)(S)[C@H](N)C(=O)O; βAla = NCCC(=O)O

What was measured:
in vitro [1] = conditions: human, 20% fecal homogenate (supernatant), anaerobic, pH 6.8
IL-23R = molecular target: T1, IL-23R (Homo sapiens, UniProt Q5VWK5); assay: DB cells IL23R pSTAT3 cell assay (pStat3 HTRF); assay type: cell-based; conditions: Table E3; DB cells, IL-23 0.5 nM, 30 minutes at 37° C.; read-out: pStat3 HTRF (IC50)
T1 sequence (Q5VWK5 24-629): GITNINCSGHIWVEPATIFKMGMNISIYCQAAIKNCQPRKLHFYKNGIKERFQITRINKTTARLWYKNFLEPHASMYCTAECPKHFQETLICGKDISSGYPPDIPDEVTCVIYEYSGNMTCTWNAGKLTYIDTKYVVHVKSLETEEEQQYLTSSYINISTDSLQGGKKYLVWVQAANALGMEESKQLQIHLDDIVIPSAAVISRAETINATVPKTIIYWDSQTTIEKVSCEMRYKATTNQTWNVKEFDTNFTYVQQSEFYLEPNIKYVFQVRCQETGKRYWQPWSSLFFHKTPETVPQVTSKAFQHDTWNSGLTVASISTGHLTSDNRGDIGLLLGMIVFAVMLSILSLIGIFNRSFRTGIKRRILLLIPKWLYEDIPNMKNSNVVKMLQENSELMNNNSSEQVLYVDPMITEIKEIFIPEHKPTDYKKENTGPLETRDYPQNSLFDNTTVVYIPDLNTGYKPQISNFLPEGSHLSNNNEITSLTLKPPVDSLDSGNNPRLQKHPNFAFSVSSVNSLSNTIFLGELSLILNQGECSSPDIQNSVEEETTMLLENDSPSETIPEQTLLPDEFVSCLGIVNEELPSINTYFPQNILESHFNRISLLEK
How it was run: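 HTRF readout of lysate pSTAT3 (Tyr705) after two-plate processing. Peptide dilution series co-incubated with IL-23 (0.5 nM final) on 5×10E5 IL-23R-expressing DB cells per well, 30 min, 37 °C.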

in vitro [2] = conditions: both, SD, rat, plasma (EDTA)
Method: Peptides of interest (20 μM) were incubated with pre-warmed rat plasma (SD rat, mixed gender pooled, EDTA, filtered through 0.22 μm, BioreclamationIVT) at 37° C. […] Quenched samples were stored at 4° C. until the end of the experiment and centrifuged at 4,000 rpm for 10 minutes. The supernatant were diluted 1:1 with deionized water and analyzed using LC-MS. Percentage remaining at each time point was calculated based on the peak area ratio (analyte over internal standard) relative to the initial level at time zero. Half-lives were calculated by fitting to a first-order exponential decay equation using GraphPad.

in vitro [3] = conditions: cynomolgus monkey, 20% fecal homogenate (supernatant), anaerobic, pH 6.8
NK cells = assay: NK cell based assay (IL-23/IL-18-induced IFNγ, Quantikine ELISA); conditions: human primary NK cells, IL-23 at EC50 to EC75 + IL-18 10 ng/mL, IFNγ after 20 to 24 hours
Method: killer (NK) cells, purified from human peripheral blood of healthy donors by negative selection (Miltenyi Biotech, Cat #130-092-657), were cultured in complete media (RPMI 1640 containing […], L-glutamine and penicillin-streptomycin) in the presence of IL-2 (RnD, Cat #202-IL-010/CF) at 25 ng/mL. After 7 days, cells were centrifuged, and resuspended in complete media at IE6 cells/mL. […] After 20 to 24 hours, IFNγ in the supernatant was quantified using Quantikine ELISA (RnD, Cat #DIF50).

| SMILES | half-life at 20 μM (in vitro [1]) [h] | IC50 (IL-23R) [nM] | half-life at 20 μM (in vitro [2]) [h] | half-life at 20 μM (in vitro [3]) [h] | IC50 (NK cells) [nM] |
| --- | --- | --- | --- | --- | --- |
| CC(=O)NCCCC[C@H](NC(=O)[C@](C)(CC(C)C)NC(=O)[C@H](Cc1ccc2ccccc2c1)NC(=O)[C@H](Cc1ccc(OCCN)cc1)NC(=O)[C@H]1NC(=O)[C@H](CCC(N)=O)NC(=O)[C@H](Cc2c[nH]c3c(C)cccc23)NC(=O)[C@H]([C@@H](C)O)NC(=O)[C@H](CC(N)=O)NC(=O)[C@@H](NC(C)=O)C(C)(C)SSC1(C)C)C(=O)N(C)[C@@H](C)C(=O)NCCC(N)=O [compound 223] | > 24 | > 100 | 9 | > 24 | < 10 |
| CC(=O)NCCCC[C@@H]1NC(=O)[C@@H](NC(C)=O)C(C)(C)SSC(C)(C)[C@@H](C(=O)N[C@@H](Cc2ccc(OCCN)cc2)C(=O)N[C@@H](Cc2ccc3ccccc3c2)C(=O)N[C@@](C)(CCCCN)C(=O)N[C@@H](CCCCNC(C)=O)C(=O)N[C@@H](CC(N)=O)C(=O)NCCC(N)=O)NC(=O)[C@H](CCC(N)=O)NC(=O)[C@H](Cc2c[nH]c3c(C)cccc23)NC(=O)[C@H]([C@@H](C)O)NC1=O [compound 239] | > 24 | 1 to 10 | > 24 | 7 | < 10 |
| CC(=O)NCCCC[C@H](NC(=O)[C@](C)(CC(C)C)NC(=O)[C@H](Cc1ccc2ccccc2c1)NC(=O)[C@H](Cc1ccc(OCCN)cc1)NC(=O)[C@H]1NC(=O)[C@H](CCC(N)=O)NC(=O)[C@H](Cc2c[nH]c3c(C)cccc23)NC(=O)[C@H]([C@@H](C)O)NC(=O)[C@H](CC(N)=O)NC(=O)[C@@H](NC(C)=O)C(C)(C)SSC1(C)C)C(=O)NCCC(=O)NCCC(N)=O [compound 226] | > 24 | 10 to 100 | 8 | > 24 | < 10 |
| CC(=O)NCCCC[C@H](NC(=O)[C@](C)(CC(C)C)NC(=O)[C@H](Cc1ccc2ccccc2c1)NC(=O)[C@H](Cc1ccc(OCCN)cc1)NC(=O)[C@H]1NC(=O)[C@H](CCC(N)=O)NC(=O)[C@H](Cc2c[nH]c3c(C)cccc23)NC(=O)[C@H]([C@@H](C)O)NC(=O)[C@H](CC(N)=O)NC(=O)[C@@H](NC(C)=O)C(C)(C)SSC1(C)C)C(=O)NCC(=O)NCCC(N)=O [compound 205] | > 24 | 1 to 10 | 1 | > 24 | 11 to 100 |
| CC(=O)NCCCC[C@H](NC(=O)[C@](C)(CC(C)C)NC(=O)[C@H](Cc1ccc2ccccc2c1)NC(=O)[C@H](Cc1ccc(OCCN)cc1)NC(=O)[C@H]1NC(=O)[C@H](CCC(N)=O)NC(=O)[C@H](Cc2c[nH]c3c(C)cccc23)NC(=O)[C@H]([C@@H](C)O)NC(=O)[C@H](CC(N)=O)NC(=O)[C@@H](NC(C)=O)C(C)(C)SSC1(C)C)C(=O)N[C@@H](CCCNC(N)=O)C(=O)NCCC(N)=O [compound 206] | 20 | 10 to 100 |  | > 24 | 11 to 100 |
| CC(=O)NCCCC[C@H](NC(=O)[C@](C)(CC(C)C)NC(=O)[C@H](Cc1ccc2ccccc2c1)NC(=O)[C@H](Cc1ccc(OCCN)cc1)NC(=O)[C@H]1NC(=O)[C@H](CCC(N)=O)NC(=O)[C@H](Cc2c[nH]c3c(C)cccc23)NC(=O)[C@H]([C@@H](C)O)NC(=O)[C@H](CC(N)=O)NC(=O)[C@@H](NC(C)=O)C(C)(C)SSC1(C)C)C(=O)N[C@@H](C)C(=O)NCCC(N)=O [compound 207] | > 24 | 1 to 10 | 2 | > 24 | < 10 |
| CC(=O)N[C@@H]1C(=O)N[C@@H](CC(N)=O)C(=O)N[C@@H]([C@@H](C)O)C(=O)N[C@@H](Cc2c[nH]c3c(C)cccc23)C(=O)N[C@@H](CCC(N)=O)C(=O)N[C@H](C(=O)N[C@@H](Cc2ccc(OCCN)cc2)C(=O)N[C@@H](Cc2ccc3ccccc3c2)C(=O)N[C@@](C)(CCCCN)C(=O)N[C@@H](CCC(=O)O)C(=O)N[C@@H](CC(N)=O)C(=O)NCCC(N)=O)C(C)(C)SSC1(C)C [compound 282] | > 24 | 1 to 10 | > 24 | 22 | < 10 |
| CC(=O)NCCCC[C@H](NC(=O)[C@](C)(CC(C)C)NC(=O)[C@H](Cc1ccc2ccccc2c1)NC(=O)[C@H](Cc1ccc(OCCN)cc1)NC(=O)[C@H]1NC(=O)[C@](C)(CCCCN)NC(=O)[C@H](Cc2c[nH]c3c(C)cccc23)NC(=O)[C@H]([C@@H](C)O)NC(=O)[C@H](CC(N)=O)NC(=O)[C@@H](NC(C)=O)C(C)(C)SSC1(C)C)C(=O)N[C@@H](CC(N)=O)C(=O)NCCC(N)=O [compound 234] | > 24 | 1 to 10 | 7 | > 24 | < 10 |
| CC(=O)NCCCC[C@H](NC(=O)[C@](C)(CC(C)C)NC(=O)[C@H](Cc1ccc2ccccc2c1)NC(=O)[C@H](Cc1ccc(OCCN)cc1)NC(=O)[C@H]1NC(=O)[C@H](CCC(N)=O)NC(=O)[C@H](Cc2c[nH]c3c(C)cccc23)NC(=O)[C@H]([C@@H](C)O)NC(=O)[C@H](CC(N)=O)NC(=O)[C@@H](NC(C)=O)C(C)(C)SSC1(C)C)C(=O)N[C@@](C)(CC(C)C)C(=O)NCCC(N)=O [compound 225] | > 24 | 10 to 100 |  | > 24 | 101 to 500 |
| CC(=O)NCCCC[C@H](NC(=O)[C@](C)(CC(C)C)NC(=O)[C@H](Cc1ccc2ccccc2c1)NC(=O)[C@H](Cc1ccc(OCCN)cc1)NC(=O)[C@H]1NC(=O)[C@H](CCC(N)=O)NC(=O)[C@H](Cc2c[nH]c3c(C)cccc23)NC(=O)[C@H]([C@@H](C)O)NC(=O)[C@H](CC(N)=O)NC(=O)[C@@H](NC(C)=O)C(C)(C)SSC1(C)C)C(=O)N(C)CC(=O)NCCC(N)=O [compound 224] | > 24 | > 100 |  | > 24 | 101 to 500 |
| CC(=O)NCCCC[C@@H]1NC(=O)[C@H](Cc2c[nH]c3c(C)cccc23)NC(=O)[C@H]([C@@H](C)O)NC(=O)[C@H](CC(N)=O)NC(=O)[C@@H](NC(C)=O)C(C)(C)SSC(C)(C)[C@@H](C(=O)N[C@@H](Cc2ccc(OCCN)cc2)C(=O)N[C@@H](Cc2ccc3ccccc3c2)C(=O)N[C@@](C)(CCCCN)C(=O)N[C@@H](CCCCNC(C)=O)C(=O)N[C@@H](Cc2c[nH]cn2)C(=O)NCCC(N)=O)NC1=O [compound 272] | > 24 | 1 to 10 | > 24 | > 24 | < 10 |
| CC(=O)NCCCC[C@@H]1NC(=O)[C@H](Cc2c[nH]c3c(C)cccc23)NC(=O)[C@H]([C@@H](C)O)NC(=O)[C@H](CC(N)=O)NC(=O)[C@@H](NC(C)=O)C(C)(C)SSC(C)(C)[C@@H](C(=O)N[C@@H](Cc2ccc(OCCN)cc2)C(=O)N[C@@H](Cc2ccc3ccccc3c2)C(=O)N[C@@](C)(CCCCN)C(=O)N[C@@H](CCCCNC(C)=O)C(=O)N[C@@H](CC(N)=O)C(=O)NCCC(N)=O)NC1=O [compound 242] | > 24 | < 1 | > 24 | 8 | < 10 |
| CC(=O)NCCCC[C@H](NC(=O)[C@](C)(CCCCN)NC(=O)[C@H](Cc1ccc2ccccc2c1)NC(=O)[C@H](Cc1ccc(OCCN)cc1)NC(=O)[C@H]1NC(=O)[C@H](CCC(N)=O)NC(=O)[C@H](Cc2c[nH]c3c(C)cccc23)NC(=O)[C@H]([C@@H](C)O)NC(=O)[C@H](CC(N)=O)NC(=O)[C@@H](NC(C)=O)C(C)(C)SSC1(C)C)C(=O)N[C@@H](CC(N)=O)C(=O)NCCC(N)=O [compound 202] |  | 1 to 10 |  | 12 | < 10 |
| CC(=O)NCCCC[C@H](NC(=O)[C@](C)(CC(C)C)NC(=O)[C@H](Cc1ccc2ccccc2c1)NC(=O)[C@H](Cc1ccc(OCCN)cc1)NC(=O)[C@H]1NC(=O)[C@H](CCCNC(N)=O)NC(=O)[C@H](Cc2c[nH]c3c(C)cccc23)NC(=O)[C@H]([C@@H](C)O)NC(=O)[C@H](CC(N)=O)NC(=O)[C@@H](NC(C)=O)C(C)(C)SSC1(C)C)C(=O)N[C@@H](CC(N)=O)C(=O)NCCC(N)=O [compound 227] (Ac-[Pen]NT[Trp(7-Me)][Cit][Pen][AEF][2Nal][αMeL]K(Ac)N[βAla]-NH2; disulfide 1-6) |  | < 1 |  |  | < 10 |
